± gives the expanded uncertainty stated by the source.
Assay: mn = molality of the nth substance listed, in mol/kg
Conditions: 101.3 kPa, Liquid; for speed of sound: Pulse-echo method

[Br][Co][Br] [cobalt(II) bromide] + CC#N
Conditions	mass density, 288.15 K [kg/m3]	mass density, 293.15 K [kg/m3]	mass density, 298.15 K [kg/m3]	mass density, 303.15 K [kg/m3]	mass density, 308.15 K [kg/m3]	mass density, 313.15 K [kg/m3]	mass density, 323.15 K [kg/m3]	speed of sound, 298.15 K [m/s]
m1 = 0.06384	797.529 ± 0.59	792.118 ± 0.59	786.677 ± 0.6	781.218 ± 0.61	775.72 ± 0.61	770.192 ± 0.62	759.026 ± 0.63	–
m1 = 0.08092	800.3 ± 0.59	794.88 ± 0.59	789.432 ± 0.6	783.966 ± 0.6	778.458 ± 0.61	772.92 ± 0.62	761.738 ± 0.63	–
m1 = 0.09698	802.926 ± 0.58	797.495 ± 0.59	792.044 ± 0.6	786.563 ± 0.6	781.049 ± 0.61	775.5 ± 0.62	764.302 ± 0.63	1277 ± 1.2
m1 = 0.1125	805.465 ± 0.58	800.033 ± 0.59	794.565 ± 0.59	789.08 ± 0.6	783.57 ± 0.61	778.02 ± 0.61	766.801 ± 0.63	–
m1 = 0.1286	808.142 ± 0.58	802.7 ± 0.58	797.232 ± 0.59	791.742 ± 0.6	786.222 ± 0.6	780.656 ± 0.61	769.421 ± 0.62	1276 ± 1.2
m1 = 0.1428	810.505 ± 0.57	805.061 ± 0.58	799.583 ± 0.59	794.089 ± 0.59	788.55 ± 0.6	782.985 ± 0.61	771.734 ± 0.62	–
m1 = 0.1587	813.161 ± 0.57	807.703 ± 0.58	802.224 ± 0.58	796.713 ± 0.59	791.168 ± 0.6	785.595 ± 0.6	774.335 ± 0.62	1275.3 ± 1.2
m1 = 0.19	818.466 ± 0.57	812.988 ± 0.57	807.489 ± 0.58	801.964 ± 0.59	796.411 ± 0.59	790.822 ± 0.6	779.533 ± 0.61	1274.6 ± 1.2
m1 = 0.2204	823.615 ± 0.56	818.13 ± 0.57	812.623 ± 0.57	807.083 ± 0.58	801.513 ± 0.59	795.917 ± 0.59	784.593 ± 0.61	1273.9 ± 1.2
m1 = 0.2527	829.214 ± 0.56	823.715 ± 0.56	818.194 ± 0.57	812.642 ± 0.57	807.057 ± 0.58	801.45 ± 0.59	790.088 ± 0.6	–
m1 = 0.2636	831.14 ± 0.55	825.637 ± 0.56	820.113 ± 0.57	814.557 ± 0.57	808.967 ± 0.58	803.34 ± 0.58	791.988 ± 0.6	1273.2 ± 1.2
m1 = 0.2777	833.591 ± 0.55	828.085 ± 0.56	822.557 ± 0.56	816.995 ± 0.57	811.404 ± 0.58	805.778 ± 0.58	794.405 ± 0.6	–
m1 = 0.3089	839.134 ± 0.55	833.612 ± 0.55	828.072 ± 0.56	822.494 ± 0.56	816.889 ± 0.57	811.253 ± 0.58	799.854 ± 0.59	1272.1 ± 1.2

[Br-].[Br-].[Mn+2] [manganese(II) bromide] + CC#N
Conditions	mass density, 288.15 K [kg/m3]	mass density, 293.15 K [kg/m3]	mass density, 298.15 K [kg/m3]	mass density, 303.15 K [kg/m3]	mass density, 308.15 K [kg/m3]	mass density, 313.15 K [kg/m3]	mass density, 323.15 K [kg/m3]	speed of sound, 298.15 K [m/s]
m1 = 0.0415	793.652 ± 0.59	788.26 ± 0.6	782.85 ± 0.6	777.408 ± 0.61	771.942 ± 0.62	766.441 ± 0.62	755.33 ± 0.64	–
m1 = 0.0513	795.156 ± 0.59	789.764 ± 0.6	784.353 ± 0.6	778.907 ± 0.61	773.433 ± 0.62	767.926 ± 0.62	756.805 ± 0.64	–
m1 = 0.06115	796.676 ± 0.59	791.28 ± 0.59	785.862 ± 0.6	780.415 ± 0.61	774.941 ± 0.61	769.432 ± 0.62	758.311 ± 0.63	1277.2 ± 1.2
m1 = 0.07131	798.243 ± 0.59	792.85 ± 0.59	787.428 ± 0.6	781.978 ± 0.61	776.494 ± 0.61	770.984 ± 0.62	759.855 ± 0.63	–
m1 = 0.08138	799.819 ± 0.58	794.414 ± 0.59	788.989 ± 0.6	783.537 ± 0.6	778.054 ± 0.61	772.539 ± 0.62	761.403 ± 0.63	1276.9 ± 1.2
m1 = 0.09054	801.238 ± 0.58	795.84 ± 0.59	790.408 ± 0.6	784.953 ± 0.6	779.461 ± 0.61	773.94 ± 0.62	762.804 ± 0.63	–
m1 = 0.1006	802.824 ± 0.58	797.413 ± 0.59	791.982 ± 0.59	786.518 ± 0.6	781.03 ± 0.61	775.513 ± 0.61	764.368 ± 0.63	1276.7 ± 1.2
m1 = 0.1214	806.091 ± 0.58	800.671 ± 0.58	795.23 ± 0.59	789.765 ± 0.6	784.269 ± 0.6	778.744 ± 0.61	767.585 ± 0.62	–
m1 = 0.1406	809.125 ± 0.57	803.696 ± 0.58	798.249 ± 0.59	792.776 ± 0.59	787.272 ± 0.6	781.741 ± 0.61	770.567 ± 0.62	1276.1 ± 1.2
m1 = 0.1603	812.287 ± 0.57	806.853 ± 0.58	801.398 ± 0.58	795.916 ± 0.59	790.407 ± 0.6	784.868 ± 0.6	773.687 ± 0.62	–
m1 = 0.1712	814.024 ± 0.57	808.58 ± 0.57	803.121 ± 0.58	797.634 ± 0.59	792.128 ± 0.59	786.584 ± 0.6	775.396 ± 0.61	1275.7 ± 1.2
m1 = 0.1804	815.501 ± 0.57	810.054 ± 0.57	804.59 ± 0.58	799.11 ± 0.59	793.589 ± 0.59	788.041 ± 0.6	776.847 ± 0.61	–
m1 = 0.1995	818.585 ± 0.56	813.117 ± 0.57	807.642 ± 0.58	802.149 ± 0.58	796.622 ± 0.59	791.065 ± 0.6	779.856 ± 0.61	1275.3 ± 1.2

[Br-].[Br-].[Zn+2] [zinc bromide] + CC#N
Conditions	mass density, 288.15 K [kg/m3]	mass density, 293.15 K [kg/m3]	mass density, 298.15 K [kg/m3]	mass density, 303.15 K [kg/m3]	mass density, 308.15 K [kg/m3]	mass density, 313.15 K [kg/m3]	mass density, 323.15 K [kg/m3]	speed of sound, 298.15 K [m/s]
m1 = 0.02964	–	–	–	–	–	–	–	1277.1 ± 1.2
m1 = 0.03209	792.171 ± 0.59	786.781 ± 0.6	781.365 ± 0.61	775.922 ± 0.61	770.453 ± 0.62	764.95 ± 0.62	753.836 ± 0.64	–
m1 = 0.0404	793.435 ± 0.59	788.04 ± 0.6	782.622 ± 0.6	777.179 ± 0.61	771.701 ± 0.62	766.197 ± 0.62	755.075 ± 0.64	–
m1 = 0.04717	794.467 ± 0.59	789.072 ± 0.6	783.65 ± 0.6	778.202 ± 0.61	772.724 ± 0.62	767.215 ± 0.62	756.09 ± 0.64	1276.4 ± 1.2
m1 = 0.05609	795.839 ± 0.59	790.436 ± 0.59	785.044 ± 0.6	779.559 ± 0.61	774.08 ± 0.61	768.567 ± 0.62	757.437 ± 0.64	–
m1 = 0.06324	796.938 ± 0.59	791.534 ± 0.59	786.108 ± 0.6	780.651 ± 0.61	775.17 ± 0.61	769.655 ± 0.62	758.516 ± 0.63	1275.7 ± 1.2
m1 = 0.07124	798.167 ± 0.59	792.766 ± 0.59	787.332 ± 0.6	781.876 ± 0.61	776.393 ± 0.61	770.874 ± 0.62	759.73 ± 0.63	–
m1 = 0.07952	799.446 ± 0.58	794.033 ± 0.59	788.597 ± 0.6	783.143 ± 0.6	777.651 ± 0.61	772.126 ± 0.62	760.98 ± 0.63	1275.1 ± 1.2
m1 = 0.09524	801.876 ± 0.58	796.466 ± 0.59	791.02 ± 0.59	785.546 ± 0.6	780.047 ± 0.61	774.52 ± 0.61	763.359 ± 0.63	–
m1 = 0.1099	804.162 ± 0.58	798.743 ± 0.59	793.295 ± 0.59	787.86 ± 0.6	782.357 ± 0.61	776.822 ± 0.61	765.649 ± 0.63	1273.6 ± 1.2
m1 = 0.1252	806.567 ± 0.58	801.138 ± 0.58	795.677 ± 0.59	790.202 ± 0.6	784.687 ± 0.6	779.149 ± 0.61	767.969 ± 0.62	–
m1 = 0.1317	807.593 ± 0.58	802.157 ± 0.58	796.698 ± 0.59	791.221 ± 0.59	785.702 ± 0.6	780.162 ± 0.61	768.971 ± 0.62	1272.5 ± 1.2
m1 = 0.1402	808.922 ± 0.57	803.487 ± 0.58	798.026 ± 0.59	792.539 ± 0.59	787.024 ± 0.6	781.476 ± 0.61	770.273 ± 0.62	–
m1 = 0.1554	–	–	–	–	–	–	–	1271.2 ± 1.2

Reference: the NIST ThermoML archive (doi:10.1021/je7001946)
